According to patent US7718700B2, “Growth factor-binding compounds and methods of use” (Yale University, priority 2004, dated 2010):
“Also recorded” adds a separate entry of the source.

How the values were obtained:
[1] = system: Human middle cerebral artery endothelial cells; assay: VEGF-induced capillary network formation on Matrigel; assay type: cell-based; conditions: Endothelial cell, VEGF 20 ng/ml
Procedure: FIGS. 4A-4C show the effects of GFB204 on angiogenesis in vitro. GFB204 inhibits capillary network formation in a dose-response manner (FIG. 4C). Human middle cerebral artery endothelial cells (5×10^4) were seeded onto Matrigel and the cells were incubated with VEGF in the presence (FIG. 4B) or absence (FIG. 4A) of GFB204 as described under Materials and Methods.
Capillary network formation. 200 μl of Matrigel was placed into each well of a 24-well culture plate at 4° C. and allowed to polymerize by incubation at 37° C. as described previously (Papadimitriou, E. et al. Biochem Biophys Res Commun, 2001, 282:306-13). Human middle cerebral artery endothelial cells (5×10^4) were seeded on the Matrigel in 1 ml of EBM containing VEGF (20 ng/ml). Each sample was photographed using a 10× objective lens, and quantified the total length of tube structures in each photograph using the Image Pro Plus software (Media Cybernetic, Inc., Md.).

[2] = system: VEGF-stimulated Erk1, Erk2, Akt and STAT3 phosphorylation; assay: VEGF-stimulated phosphorylation of Erk1/2, Akt and STAT3 in Flk-1/NIH 3T3 cells; assay type: cell-based, mouse; conditions: GFB204 10 μM
Procedure: (§1) FIGS. 3A and 3B show the effect of GFB204 on growth factor stimulated Erk1, Erk2, Akt, and STAT3 phosphorylation. GFB204 inhibits VEGF and PDGF stimulation of Flk-1 tyrosine phosphorylation and Erk1/Erk2 phosphorylation (FIG. 3A). NIH 3T3 cells or Flk-1/NIH 3T3 cells were treated with increasing concentrations of GFB204 for 5 minutes prior to stimulation with PDGFBB (10 ng/ml) or VEGF (50 ng/ml), respectively, for 10 minutes. The cells were then lysed and processed for SDS-PAGE Western blotting with an antibody specific for phosphotyrosine-Flk-1 or anti-phosphotyrosine for PDGFR tyrosine phosphorylation or phospho-Erk1/2. GFB204 effects on growth factor-stimulated Erk1, Erk2, Akt and STAT3 phosphorylation (FIG. 3B). NIH 3T3, Flk-1/NIH 3T3, IGF-1R/NIH 3T3 or EGFR/NIH 3T3 cells were treated with GFB204 (10 μM) prior to stimulation with PDGF (NIH 3T3) VEGF (Flk-1/NIH 3T3), EGF (EGFR/NIH 3T3), bFGF (NIH 3T3) or IGF-1 (IGF-1R/NIH 3T3). The cells were then harvested and processed for SDS-PAGE Western blotting with antibodies specific for phospho-Erk1/2, phospho-Akt and phospho-STAT3.
(§2) Growth factor-mediated stimulation of phosphorylation of Erk1/2, Akt and STAT3. […]

EGFR = biological target: T1, EGFR (Homo sapiens, UniProt P00533); assay: 125I-EGF binding to its receptor on EGFR/NIH 3T3 cells; conditions: concentrations as high as 100 μM
T1 construct: expressed in transfected cells; host or cells: NIH 3T3 (EGFR/NIH 3T3)
Procedure: Flk-1/NIH 3T3, NIH 3T3 and EGFR/NIH 3T3 cells were incubated with ^125I-VEGF, ^125I-PDGF and ^125I-EGF (50,000 cpm/well) respectively, along with increasing concentrations of GFB204. Cells were incubated at 4° C. for 0.5 hours, then washed three times with PBS and three times with lysis buffer prior to determining ^125I counts as described under Materials and Methods. An excess of cold VEGF, PDGF, and EGF was used to obtain non-specific binding levels. FIGS. 2A-2C show specific binding (% control) for PDGFR, Flk-1, and EGFR, respectively.
Binding of ^125I-growth factors to their receptors. The binding assay of ^125I-VEGF, ^125I-PDGF and ^125I-EGF to their respective receptors was carried out as described previously (Blaskovich, M. A. et al. Nat Biotechnol, 2000, 18:1065-70. Briefly, Flk-1/NIH 3T3 cells, NIH 3T3 cells and EGFR/NIH 3T3 cells were incubated with ^125I-VEGF, ^125I-PDGF and ^125I-EGF (50,000 cpm/well), respectively, and increasing concentrations of GFB204. Cells were incubated at 4° C. for 0.5 hours, then washed three times with PBS and three times with 25 mM Tris, pH 8.0, 1% Triton-X-100, 10% glycerol, and 1% SDS prior to determining ^125I counts on a gamma counter (Beckmann Inc.). An excess of cold growth factors were used to obtain nonspecific binding levels.

[3] = system: PDGF-stimulated Erk1, Erk2, Akt and STAT3 phosphorylation; assay: PDGF-stimulated phosphorylation of Erk1/2, Akt and STAT3 in NIH 3T3 cells; assay type: cell-based, mouse; conditions: GFB204 10 μM
Procedure: as §1, §2

[4] = system: EGF-stimulated Erk1, Erk2, Akt and STAT3 phosphorylation; assay: EGF-stimulated phosphorylation of Erk1/2, Akt and STAT3 in EGFR/NIH 3T3 cells; assay type: cell-based, mouse; conditions: GFB204 10 μM
Procedure: as §1, §2

VEGF = biological target: T2, VEGF (Homo sapiens, UniProt P15692); assay: Tryptophan fluorescence titration of VEGF; assay type: binding; conditions: emission at 334 nm
T2 sequence (P15692 27-191 isoform P15692-4): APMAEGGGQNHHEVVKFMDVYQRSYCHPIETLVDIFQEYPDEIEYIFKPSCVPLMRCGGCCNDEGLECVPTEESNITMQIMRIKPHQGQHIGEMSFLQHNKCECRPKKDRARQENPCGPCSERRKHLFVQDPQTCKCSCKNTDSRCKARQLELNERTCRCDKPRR
Procedure: FIGS. 2D and 2E illustrate that GFB-204 binds PDGF and VEGF as indicated by growth factor tryptophan when increased amounts of GFB204 were added to PDGF and VEGF, respectively. The fluorescence was monitored by excitation at 295 nm and 228 nm, respectively, and emission at 334 nm.
Both VEGF and PDGF contain tryptophans that fluoresce at […] when excited at […].

[5] = system: IGF-1-stimulated Erk1, Erk2, Akt and STAT3 phosphorylation; assay: IGF-1-stimulated phosphorylation of Erk1/2, Akt and STAT3 in IGF-1R/NIH 3T3 cells; assay type: cell-based, mouse; conditions: GFB204 10 μM
Procedure: as §1, §2

T1 sequence (P00533 25-1210): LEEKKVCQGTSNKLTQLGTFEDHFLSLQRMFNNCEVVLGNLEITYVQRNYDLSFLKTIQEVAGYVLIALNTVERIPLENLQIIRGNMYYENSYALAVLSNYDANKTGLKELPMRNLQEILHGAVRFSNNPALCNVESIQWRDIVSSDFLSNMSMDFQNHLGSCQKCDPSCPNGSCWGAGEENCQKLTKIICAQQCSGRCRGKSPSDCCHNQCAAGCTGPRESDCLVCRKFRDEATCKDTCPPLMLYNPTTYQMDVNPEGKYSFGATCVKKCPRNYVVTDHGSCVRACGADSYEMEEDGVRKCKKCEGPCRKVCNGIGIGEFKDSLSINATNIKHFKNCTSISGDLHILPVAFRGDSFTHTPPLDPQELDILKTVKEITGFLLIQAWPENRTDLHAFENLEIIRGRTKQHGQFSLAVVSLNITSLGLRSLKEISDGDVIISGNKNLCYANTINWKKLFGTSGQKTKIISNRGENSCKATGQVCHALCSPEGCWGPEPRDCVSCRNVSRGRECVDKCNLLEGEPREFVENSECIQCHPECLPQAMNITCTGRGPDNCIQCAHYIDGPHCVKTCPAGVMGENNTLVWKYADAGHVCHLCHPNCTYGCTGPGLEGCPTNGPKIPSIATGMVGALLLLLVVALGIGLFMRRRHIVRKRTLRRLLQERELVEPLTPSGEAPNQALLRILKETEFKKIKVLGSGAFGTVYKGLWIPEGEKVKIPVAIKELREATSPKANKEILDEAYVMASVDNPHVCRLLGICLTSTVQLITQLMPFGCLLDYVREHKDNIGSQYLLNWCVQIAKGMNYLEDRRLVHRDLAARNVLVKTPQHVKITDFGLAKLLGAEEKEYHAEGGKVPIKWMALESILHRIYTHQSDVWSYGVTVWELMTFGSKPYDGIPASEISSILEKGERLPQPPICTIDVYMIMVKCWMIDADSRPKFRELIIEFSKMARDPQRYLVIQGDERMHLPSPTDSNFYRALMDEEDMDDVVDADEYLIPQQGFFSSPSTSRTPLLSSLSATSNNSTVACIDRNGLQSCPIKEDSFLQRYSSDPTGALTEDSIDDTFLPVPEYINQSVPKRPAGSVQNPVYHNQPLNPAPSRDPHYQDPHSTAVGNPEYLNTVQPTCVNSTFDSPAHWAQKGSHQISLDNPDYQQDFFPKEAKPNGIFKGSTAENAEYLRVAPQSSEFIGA

## CCCCOc1c2cc(C(=O)Nc3cc(C(=O)O)cc(C(=O)OCc4ccccc4)c3)cc1Cc1cc(C(=O)Nc3cc(C(=O)O)cc(C(=O)OCc4ccccc4)c3)cc(c1OCCCC)Cc1cc(C(=O)Nc3cc(C(=O)O)cc(C(=O)OCc4ccccc4)c3)cc(c1OCCCC)Cc1cc(C(=O)Nc3cc(C(=O)O)cc(C(=O)OCc4ccccc4)c3)cc(c1OCCCC)C2 [GFB204]
[1]
  IC50: 700 nM
[2]
  VEGF-stimulation of the phosphorylation of Erk1, Erk2, Akt and STAT3: blocked; also recorded: inhibited
EGFR
  [I-125]EGF binding to its receptor: not affected
[3]
  PDGF-stimulation of the phosphorylation of Erk1, Erk2, Akt and STAT3: blocked; also recorded: inhibited
[4]
  EGF-stimulation of the phosphorylation of Erk1, Erk2, Akt and STAT3: had little effect and not
VEGF
  binding to VEGF by tryptophan fluorescence titration: binds both PDGF and VEGF
[5]
  IGF-1-stimulation of the phosphorylation of Erk1, Erk2, Akt and STAT3: had little effect and not
